{"source": "paper PMC12376241", "about": "(2025)", "key": {"[1]": {"test_system": "LR1 (RNA, aptamer) GGGAGAGGAGGGAGAUAGAUAUCAAACUAAACACUUGAGGCUCGAUCUUUAUUGUAUUUACACCAUCUUGUGCAUCAUUUCGUGGAUGCCACAGGAC", "test": "fluorescence polarization, displacement of Cy3-ODN", "conditions": "3 mM Mg2+, PBS, 0.005% Tween 20, 21 °C; for binding: 100 nM Cy3-ODN, 500 nM RNA, tested at 100 μM"}, "[2]": {"test_system": "R3 (RNA, aptamer) GGGAGAGGAGGGAGAUAGAUAUCAAGUCGGAGGUAUGAGGCUCGAUCACGAAGAAGGCCGAUUGGGUUACCCUCCUUUUUCGUGGAUGCCACAGGAC", "test": "ITC", "conditions": "300 μM ligand into 20 μM RNA"}, "[3]": {"test_system": "R3 (RNA, aptamer) GGGAGAGGAGGGAGAUAGAUAUCAAGUCGGAGGUAUGAGGCUCGAUCACGAAGAAGGCCGAUUGGGUUACCCUCCUUUUUCGUGGAUGCCACAGGAC", "test": "fluorescence polarization, displacement of Cy3-ODN", "conditions": "3 mM Mg2+, PBS, apparent, 0.005% Tween 20, 21 °C, 9-nt Cy3-ODN displaced, inhibitor vs response fit"}, "[4]": {"test_system": "R2 (RNA, aptamer) GGGAGAGGAGGGAGAUAGAUAUCAAGAGGUACGUAUGAGGCUCGAUCGGAAGGCUGGUCUAGGUCCCGUCCUGACCGUUUCGUGGAUGCCACAGGAC", "test": "fluorescence polarization, displacement of Cy3-ODN", "conditions": "3 mM Mg2+, PBS, 0.005% Tween 20, 21 °C, 9-nt Cy3-ODN, 500 nM RNA, 0.1-1 mM compound"}, "[5]": {"test_system": "T1 (RNA, aptamer) GGGAGAGGAGGGAGAUAGAUAUCAACUAUCGCUUGUGAGGCUCGAUCUUUAUGUGCCCCUCCUUCAGGUUUGGCGUCUUUCGUGGAUGCCACAGGAC", "test": "ITC", "conditions": "1 mM ligand into 50 μM RNA"}, "[6]": {"test_system": "T1 (RNA, aptamer) GGGAGAGGAGGGAGAUAGAUAUCAACUAUCGCUUGUGAGGCUCGAUCUUUAUGUGCCCCUCCUUCAGGUUUGGCGUCUUUCGUGGAUGCCACAGGAC", "test": "fluorescence polarization, displacement of Cy3-ODN", "conditions": "3 mM Mg2+, PBS, 0.005% Tween 20, 21 °C"}, "[7]": {"test_system": "P7 (RNA, aptamer) GGGAGAGGAGGGAGAUAGAUAUCAACAGGAACGGUUGAGGCUCGAUCAGAUACCCCUCGCUACAAUGCGGCAUUGGGUUUCGUGGAUGCCACAGGAC", "test": "fluorescence polarization, displacement of Cy3-ODN", "conditions": "3 mM Mg2+, PBS, 0.005% Tween 20, 21 °C, 9-nt Cy3-ODN, 500 nM RNA, 0.1-1 mM compound"}, "[8]": {"test_system": "I5 (RNA, aptamer) GGGAGAGGAGGGAGAUAGAUAUCAAACGAACGGCAUGAGGCUCGAUCUACGUUACCCCUCUGACGUUGGCAUUUGUGUUUCGUGGAUGCCACAGGAC", "test": "fluorescence polarization, displacement of Cy3-ODN", "conditions": "3 mM Mg2+, PBS, apparent, 0.005% Tween 20, 21 °C, 9-nt Cy3-ODN displaced, inhibitor vs response fit"}, "[9]": {"test_system": "HDB2 (RNA, aptamer) GGGAGAGGAGGGAGAUAGAUAUCAAACCGGCACCUGAGGCUCGAUCUUUGUUUGCAAAGGGCAUUGCAUCGAUGUGUUUUUCGUGGAUGCCACAGGAC", "test": "ITC", "conditions": "3 mM Mg2+, PBS, 1 mM ligand into 20 μM RNA, ligand-into-buffer heat subtracted, legend also prints HDB1"}, "[10]": {"test_system": "LM1 (RNA, aptamer) GGGAGAGGAGGGAGAUAGAUAUCAACACUUGAACGUGAGGCUCGAUCUUUUUAGCUUUUUACUGCGGCGUUAACGGUUUUCGUGGAUGCCACAGGAC", "test": "ITC", "conditions": "3 mM Mg2+, PBS, 1 mM ligand into 20 μM RNA, ligand-into-buffer heat subtracted"}, "[11]": {"test_system": "LR1 (RNA, aptamer) GGGAGAGGAGGGAGAUAGAUAUCAAACUAAACACUUGAGGCUCGAUCUUUAUUGUAUUUACACCAUCUUGUGCAUCAUUUCGUGGAUGCCACAGGAC", "test": "ITC", "conditions": "3 mM Mg2+, PBS, 1 mM ligand into 20 μM RNA, ligand-into-buffer heat subtracted"}, "[12]": {"test_system": "HDB1 (RNA, aptamer) GGGAGAGGAGGGAGAUAGAUAUCAAACCCCAUCUUGAGGCUCGAUCGGCUCGUUUUUCAGGGAUAAGUAGAUUUAGUUUUUCGUGGAUGCCACAGGAC", "test": "fluorescence polarization, displacement of Cy3-ODN", "conditions": "3 mM Mg2+, PBS, apparent, 0.005% Tween 20, 21 °C, shortened Cy3-labelled capture ODN displaced, inhibitor vs response fit"}, "[13]": {"test_system": "LM1 (RNA, aptamer) GGGAGAGGAGGGAGAUAGAUAUCAACACUUGAACGUGAGGCUCGAUCUUUUUAGCUUUUUACUGCGGCGUUAACGGUUUUCGUGGAUGCCACAGGAC", "test": "fluorescence polarization, displacement of Cy3-ODN", "conditions": "3 mM Mg2+, PBS, apparent, 0.005% Tween 20, 21 °C, shortened Cy3-labelled capture ODN displaced, inhibitor vs response fit"}, "[14]": {"test_system": "LM2 (RNA, aptamer) GGGAGAGGAGGGAGAUAGAUAUCAAACUAACAGUCUGAGGCUCGAUCUUUUGCAGAAACUUUCGUCUUUUGGCUAUCUUUCGUGGAUGCCACAGGAC", "test": "fluorescence polarization, displacement of Cy3-ODN", "conditions": "3 mM Mg2+, PBS, 0.005% Tween 20, 21 °C, 100 nM Cy3-ODN, 500 nM RNA, 100 μM compound"}, "[15]": {"test_system": "LR2 (RNA, aptamer) GGGAGAGGAGGGAGAUAGAUAUCAAUUACCACGCUUGAGGCUCGAUCUUUUGCUUUGUCCAUCUAGUGUUGUCUGCGUUUCGUGGAUGCCACAGGAC", "test": "fluorescence polarization, displacement of Cy3-ODN", "conditions": "3 mM Mg2+, PBS, 0.005% Tween 20, 21 °C, 100 nM Cy3-ODN, 500 nM RNA, 100 μM compound"}}, "data": [{"smiles": "CC1(C)S[C@@H]2[C@H](NC(=O)[C@H](N)c3ccccc3)C(=O)N2[C@H]1C(=O)O", "values": [{"measurement": "binding", "setting": "[1]", "value": "no"}]}, {"smiles": "Nc1ncnc2c1ncn2[C@@H]1O[C@@H]2COP(=O)(O)O[C@H]2[C@H]1O", "values": [{"measurement": "binding", "setting": "[1]", "value": "no"}]}, {"smiles": "Cc1cc2nc3c(=O)[nH]c(=O)nc-3n(C[C@H](O)[C@H](O)[C@H](O)CO)c2cc1C", "values": [{"measurement": "Kd", "setting": "[2]", "value": "9.88 ± 1.09", "unit": "µM"}, {"measurement": "Kd", "setting": "[3]", "value": "~ 5 μM"}, {"measurement": "binding", "setting": "[4]", "value": "weak"}]}, {"smiles": "Cn1c(=O)c2c(ncn2C)n(C)c1=O", "values": [{"measurement": "binding", "setting": "[5]; no interaction", "value": "no"}, {"measurement": "binding", "setting": "[6]; 9-nt Cy3-ODN tracer, no binding observed", "value": "no"}]}, {"smiles": "Nc1nc2c(ncn2[C@@H]2O[C@H](COP(=O)(O)OP(=O)(O)O)[C@@H](OP(=O)(O)OP(=O)(O)O)[C@H]2O)c(=O)[nH]1", "values": [{"measurement": "binding", "setting": "[7]", "value": "weak"}]}, {"smiles": "O=P(O)(O)O[C@H]1[C@@H](OP(=O)(O)O)[C@H](OP(=O)(O)O)[C@@H](OP(=O)(O)OP(=O)(O)O)[C@H](OP(=O)(O)O)[C@H]1OP(=O)(O)O", "values": [{"measurement": "Kd", "setting": "[8]", "value": "~ 76 μM"}]}, {"smiles": "N=C(N)NCCC[C@H](N)C(=O)O", "values": [{"measurement": "binding", "setting": "[1]", "value": "no"}]}, {"smiles": "NC[C@@H]1O[C@H](O[C@H]2[C@@H](O)[C@H](O[C@@H]3[C@@H](O)[C@H](N)C[C@H](N)[C@H]3O[C@H]3O[C@H](CN)[C@@H](O)[C@H](O)[C@H]3N)O[C@@H]2CO)[C@H](N)[C@@H](O)[C@@H]1O", "values": [{"measurement": "Kd", "setting": "[9]", "value": "55.9 ± 3.57", "unit": "µM"}, {"measurement": "Kd", "setting": "[10]", "value": "38.0 ± 2.10", "unit": "µM"}, {"measurement": "Kd", "setting": "[11]", "value": "34.7 ± 1.97", "unit": "µM"}, {"measurement": "Kd", "setting": "[12]", "value": "~ 10 μM"}, {"measurement": "Kd", "setting": "[13]", "value": "~ 4 μM"}, {"measurement": "Kd", "setting": "[1]; apparent, shortened Cy3-labelled capture ODN displaced, inhibitor vs response fit", "value": "~ 3 μM"}, {"measurement": "binding", "setting": "[14]", "value": "yes"}, {"measurement": "binding", "setting": "[15]", "value": "yes"}]}, {"smiles": "Cn1c(=O)c2[nH]cnc2n(C)c1=O", "values": [{"measurement": "Kd", "setting": "[5]", "value": "70.3 ± 6.33", "unit": "µM"}, {"measurement": "binding", "setting": "[1]", "value": "no"}, {"measurement": "Kd", "setting": "[6]; apparent, 9-nt Cy3-ODN displaced, inhibitor vs response fit", "value": "~ 54 μM"}]}, {"smiles": "NC[C@H]1O[C@H](O[C@H]2[C@H](O)[C@@H](O[C@H]3O[C@H](CO)[C@@H](O)[C@H](N)[C@H]3O)[C@H](N)C[C@@H]2N)[C@H](N)[C@@H](O)[C@@H]1O", "values": [{"measurement": "Kd", "setting": "[11]", "value": "130.0 ± 30.9", "unit": "µM"}]}]}
